Experiments:
[1] = molecular target: T1, ULK1 kinase (Homo sapiens, UniProt O75385, E37A/K38A); assay: Biochemical assay for ULK1 (coupled pyruvate kinase/lactate dehydrogenase assay); conditions: 1 mM ATP, 0.1 nM ULK1; read-out: ULK1 (inhibition of biochemical activity), IC50
T1 construct: (residues 1-283; ID NO: 1); purchased Beryllium
T1 sequence (O75385 1-283 E37A/K38A): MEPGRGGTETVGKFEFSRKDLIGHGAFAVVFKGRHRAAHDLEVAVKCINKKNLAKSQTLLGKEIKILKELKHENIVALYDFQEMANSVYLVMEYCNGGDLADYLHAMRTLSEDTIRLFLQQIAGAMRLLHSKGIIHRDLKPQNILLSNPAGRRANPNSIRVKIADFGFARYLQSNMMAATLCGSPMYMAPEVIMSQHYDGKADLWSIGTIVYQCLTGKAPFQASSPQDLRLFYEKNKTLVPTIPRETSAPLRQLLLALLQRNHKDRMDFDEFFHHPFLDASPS
Outline: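 IC50 values were fitted to percent inhibition, normalised with no-compound and known-inhibitor controls, using rates from 2–3 h of a 6 h read at 30 °C. ADP was coupled through pyruvate kinase/lactate dehydrogenase to NADH loss at 340 nm.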

[2] = molecular target: T2, ULK2 kinase (Homo sapiens, UniProt Q8IYT8); assay: Biochemical assay for ULK2 (coupled pyruvate kinase/lactate dehydrogenase assay); conditions: 1 mM ATP, 1 nM ULK2; read-out: ULK2 (inhibition of biochemical activity), IC50
T2 construct: (residues 1-306 with N-terminal GST and His tag; ID NO: 2); purchased Signal Chem U02-11G
T2 sequence (Q8IYT8 with tags, fused parts or gaps): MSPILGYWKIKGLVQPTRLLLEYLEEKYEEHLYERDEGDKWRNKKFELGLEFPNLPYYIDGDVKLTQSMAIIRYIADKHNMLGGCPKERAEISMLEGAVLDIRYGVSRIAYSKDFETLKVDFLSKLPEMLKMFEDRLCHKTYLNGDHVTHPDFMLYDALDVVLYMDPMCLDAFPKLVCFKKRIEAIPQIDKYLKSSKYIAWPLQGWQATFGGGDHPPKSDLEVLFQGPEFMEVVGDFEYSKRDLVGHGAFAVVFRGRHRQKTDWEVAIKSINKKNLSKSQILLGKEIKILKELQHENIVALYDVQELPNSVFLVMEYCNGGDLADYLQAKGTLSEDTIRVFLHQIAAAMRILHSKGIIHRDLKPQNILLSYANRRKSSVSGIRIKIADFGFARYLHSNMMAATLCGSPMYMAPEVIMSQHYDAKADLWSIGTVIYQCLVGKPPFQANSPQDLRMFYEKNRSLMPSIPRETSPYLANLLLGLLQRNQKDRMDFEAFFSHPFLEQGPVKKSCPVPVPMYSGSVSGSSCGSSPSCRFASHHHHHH
Outline: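 Continuous PK/LDH-coupled NADH oxidation assay (A340) with 1 nM ULK2, 200 μM ULKtide and 1 mM ATP in Tris pH 7.5, 15 mM MgCl2, 1% DMSO, read 6 h at 30° C. Rates from the 2-3 h window converted to percent inhibition against no-compound and known-inhibitor controls; IC50 by four-parameter sigmoidal fit.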

[3] = test system: ULK kinase substrate ATG13 (pS318-ATG13) in HCT-116 cells; assay: pATG13 levels of mutant KRas HCT-116 cells after treatment with ULK inhibitors in combination with trametinib (ELISA); format: cell-based, human
Description: pATG13 Levels of Mutant KRas HCT-116 Cells after Treatment with ULK Inhibitors in Combination with Trametinib
HCT-116 human colon cancer cells (10000 cells/well) were added to a 384-well tissue-culture treated plate in 50 μL of pre-warmed DMEM medium supplemented with 10% characterized fetal bovine serum (Invitrogen, Carlsbad, CA), 100 units/mL penicillin G, and 100 μg/mL streptomycin and allowed to grow overnight at 37° C., 5% CO2, and 95% humidity. The following day, 10 μL of media containing trametinib or DMSO as a control was added to wells. The final concentration of trametinib in wells was 250 nM. A dose response of a test compound (0.6 μL per well) was added. DMSO (0.6 μL) was added to control wells. The plate was briefly shaken to mix wells and then incubated at 37° C. overnight. The next day, the media was aspirated and cells were washed with Dulbecco's Phosphate Buffered Saline (Gibco). Cells were lysed using MPER lysis buffer (Pierce, Rockford, IL) containing Halt Phosphatase and Protease Inhibitors (Pierce, Rockford, IL) and Phosphatase inhibitor cocktail 2 (Sigma, St. Louis, MO) at 4° C. for 10 minutes with shaking.
Cellular levels of phospho-Serine 318 ATG13 (pATG13) were measured via an ELISA method. Total ATG13 Antibody (Cell Signaling Cat #13273) was used to coat the wells. The plate was incubated at 4° C. overnight and washed with ELISA wash buffer (Biolegend Cat #421601). The wells were then blocked with assay diluent (Biolegend Cat #421203) for 1 h at rt. Plate wells were washed with ELISA wash buffer. Cell lysate was added to wells and incubated at rt for 2 h. Plate wells were washed with ELISA wash buffer. Biotinylated pS318-ATG13 antibody (Rockland Immunochemicals Cat #600-401-C49) was diluted in assay diluent and added to each well and incubated at rt for 1 h. Plate wells were washed with ELISA wash buffer. Streptavidin linked to horseradish peroxidase (Thermo Fisher Cat #21140) was diluted in assay diluent and added to each well and incubated at rt for 1 h. Plate wells were washed with ELISA wash buffer. High sensitivity TMB substrate (Biolegend Cat #421101) was added to each well and incubated at rt for 20 minutes. The reaction was stopped with 2.0N sulfuric acid. The plate was analyzed at on a plate reader measuring absorbance at 450 nm and 540 nm (background). Signal was calculated by first subtracting the background absorbance at 540 nm from the absorbance at 450 nm for each well. Next, the background corrected absorbance at 450 nm from blank wells was subtracted from test wells. Data was compared to control wells to determine % ATG13 phosphorylation. GraphPad Prism was used to calculate IC50 values.

SMILES	IC50 [1] [nM]	IC50 [2] [nM]	IC50 [3] [nM]
CC/C(Nc1cnn(C(C)C)c1)=C1/C(=O)Nc2ccc(C(=O)NCC(F)(F)F)cc21 [Example 4, (Z)-3-(1-((1-isopropyl-1H-pyrazol-4-yl)amino)propylidene)-2-oxo-N-(2,2,2-trifluoroethyl)indoline-5-carboxamide]	≤ 10	10 to 100	≤ 100
CC/C(Nc1cnn(C2CCN(C(C)C)CC2)c1)=C1/C(=O)Nc2ccc(C(=O)N(C)CC(F)(F)F)cc21 [Example 7]	≤ 10	10 to 100	≤ 100
CC/C(Nc1cnn(C2CCN(C(C)C)CC2)c1)=C1/C(=O)Nc2ccc(C(=O)NCC(F)(F)F)cc21 [Example 8]	≤ 10	10 to 100	≤ 100
CC/C(Nc1cnn(C2CCN(C(C)C)CC2)c1)=C1/C(=O)Nc2ccc(C(=O)N(C)CCOC)cc21 [Example 9]	10 to 100		≤ 100
CC/C(Nc1cnn(C2CCN(C(C)C)CC2)c1)=C1/C(=O)Nc2ccc(C(=O)NCC(C)C)cc21 [Example 16]	≤ 10	10 to 100	≤ 100
CC/C(Nc1cnn(C2CCN(C(C)C)CC2)c1)=C1/C(=O)Nc2ccc(C(=O)NCCC#N)cc21 [Example 26]	≤ 10	10 to 100	≤ 100
CC/C(Nc1ccc(N2CCN(C(C)C)CC2)cc1)=C1/C(=O)Nc2ccc(C(=O)NC[C@H]3CCCO3)cc21 [Example 47]	≤ 10	10 to 100	≤ 100
CC/C(Nc1cnn(C2CCNCC2)c1)=C1/C(=O)Nc2ccc(C(=O)NC[C@H]3CCCO3)cc21 [Example 52]	≤ 10	10 to 100	≤ 100
CC/C(Nc1cnn(C2CC3CCC(C2)N3C)c1)=C1/C(=O)Nc2ccc(C(=O)NC[C@H]3CCCO3)cc21 (some centres unmarked) [Example 53]	≤ 10	10 to 100	≤ 100
CC/C(Nc1cnn(C2CN(C)C2)c1)=C1/C(=O)Nc2ccc(C(=O)NC[C@H]3CCCO3)cc21 [Example 54]	≤ 10	10 to 100	≤ 100
CC/C(Nc1cnn(C2CCN(C(C)C)CC2)c1)=C1/C(=O)Nc2ccc(C(=O)NC[C@@H](C)OC)cc21 [Example 58]	10 to 100	100 to 500	≤ 100
CC/C(Nc1ccc(N2CC3CC(C2)N3C)cc1)=C1/C(=O)Nc2ccc(C(=O)NCC(F)(F)F)cc21 [Example 60]	≤ 10	10 to 100	≤ 100
CC/C(Nc1ccc(N2C[C@H]3CN(C)C[C@H]3C2)cc1)=C1/C(=O)Nc2ccc(C(=O)NCC(F)(F)F)cc21 [Example 61]	≤ 10	10 to 100	≤ 100
CC/C(Nc1ccc(N2CCN(C(C)C)CC2)cn1)=C1/C(=O)Nc2ccc(C(=O)NC[C@H]3CCCO3)cc21 [Example 93]	≤ 10	10 to 100	≤ 100
CC/C(Nc1cnn(C2CCN(C(C)C)CC2)c1)=C1/C(=O)Nc2ccc(C(=O)NCCOC)cc21 [Example 98]	≤ 10	100 to 500	≤ 100

The next lines start with the values.

IC50 [1] [nM]	IC50 [2] [nM]	IC50 [3] [nM]	SMILES
≤ 10	10 to 100	≤ 100	CC/C(Nc1cnn(CC)c1)=C1/C(=O)Nc2ccc(C(=O)NCC(F)(F)F)cc21 [Example 107]
10 to 100	10 to 100	≤ 100	CC/C(Nc1cnn(C(F)(F)F)c1)=C1/C(=O)Nc2ccc(C(=O)NCC(F)(F)F)cc21 [Example 113]
10 to 100	10 to 100	≤ 100	CC/C(Nc1cnn(C(F)F)c1)=C1/C(=O)Nc2ccc(C(=O)NCC(F)(F)F)cc21 [Example 114]
≤ 10	≤ 10	≤ 100	CC/C(Nc1cnn(C2CCC2)c1)=C1/C(=O)Nc2ccc(C(=O)NCC(F)(F)F)cc21 [Example 117]
100 to 500	100 to 500	100 to 300	CC/C(Nc1cnn(C2CCN(C(C)C)CC2)c1)=C1/C(=O)Nc2ccc(C(C)=O)cc21 [Example 123]
≤ 10	10 to 100	≤ 100	CC/C(Nc1cnn(C(C)C)c1)=C1/C(=O)Nc2ccc(C(=O)NCC(C)C)cc21 [Example 130]
≤ 10	10 to 100	≤ 100	CC/C(Nc1cnn(C(C)C)c1)=C1/C(=O)Nc2ccc(C(=O)NCC(C)(C)F)cc21 [Example 135]
≤ 10	10 to 100	≤ 100	CC/C(Nc1cnn(C(C)C)c1)=C1/C(=O)Nc2ccc(C(=O)NCC3(C(F)(F)F)CC3)cc21 [Example 140]
10 to 100	10 to 100		CC/C(Nc1cnn(C(C)C)c1)=C1/C(=O)Nc2ccc(C(=O)NCC3(C)CCOC3)cc21 (centres unmarked) [Example 168]
10 to 100	10 to 100		CC/C(Nc1cnn(C(F)(F)F)c1)=C1/C(=O)Nc2ccc(C(=O)NCC(C)C)cc21 [Example 169]
≤ 10	≤ 10		CC/C(Nc1cnn(C2CCOCC2)c1)=C1/C(=O)Nc2ccc(C(=O)NCC(C)(C)F)cc21 [Example 173]

— patent publication US20240150368A1, “ULK INHIBITORS AND METHODS OF USE THEREOF” (Deciphera Pharmaceuticals, LLC, priority 2022, published 2024)
